Data reported in patent US5527703A (Merck & Co., Inc., priority 1994, dated 1996).

Legend:
GluClβ = molecular target: T1, GluClβ (Caenorhabditis elegans, UniProt Q17328); assay: Activation of current in Xenopus oocytes expressing homomeric GluClβ (voltage clamp); format: cell-based, C. elegans
T1 construct: the full-length open reading frame of the GluCl cDNA encoding the GluClα (52,550 kDa) and GluClβ (49,900kDa) subunits; expressed in transfected cells; host or cells: Xenopus laevis oocytes injected with in vitro RNA
T1 sequence (Q17328 23-434): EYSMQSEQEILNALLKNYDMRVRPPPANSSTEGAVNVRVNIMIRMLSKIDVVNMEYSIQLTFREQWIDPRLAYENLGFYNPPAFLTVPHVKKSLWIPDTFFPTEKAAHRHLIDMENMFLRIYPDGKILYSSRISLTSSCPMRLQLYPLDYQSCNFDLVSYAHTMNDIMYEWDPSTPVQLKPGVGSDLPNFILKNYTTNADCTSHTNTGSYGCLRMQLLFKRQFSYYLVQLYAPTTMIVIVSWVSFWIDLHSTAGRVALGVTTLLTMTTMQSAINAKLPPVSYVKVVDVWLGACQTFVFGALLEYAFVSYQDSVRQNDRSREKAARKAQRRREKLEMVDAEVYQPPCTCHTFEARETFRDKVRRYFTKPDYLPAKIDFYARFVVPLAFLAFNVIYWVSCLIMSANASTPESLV
Experimental: (§1) Xenopus laevis oocytes were prepared and injected using standard methods previously described and known in the art [Arena, J. P., Liu. K. K., Paress, P. S. & Cully. D. F. Mol. Pharmacol. 40, 368-374 (1991 ); Arena, J. P., Liu, K. K., Paress, P. S., Schaeffer, J. M. & Cully, D. F. Mol. Brain Res. 15, 339-348 (1992)]. Adult female Xenopus laevis were anesthetized with 0.17% tricaine methanesulfonate and the ovaries were surgically removed and placed in a dish consisting of (mM): NaCl 1 82.5, KCl 2. MgCl2 1, CaCl2 1.8, HEPES 5 adjusted to pH 7.5 with NaOH (OR-2). Ovarian lobes were broken open, rinsed several times, and gently shaken in OR-2 containing 0.2% collagenase (Sigma, Type 1A) for 2-5 hours. When approximately 50% of the follicular layers were removed, Stage V and VI oocytes were selected and placed in media consisting of (mM): NaCl 86, KCl 2, MgCl2 1, CaCl2 1.8, HEPES 5, Na pyruvate 2.5, theophylline 0.5, gentamicin 0.1 adjusted to pH 7.5 with NaOH (ND-96) for 24-48 hours before injection. Oocytes were injected with 50-70 nl of poly(A^+) RNA (1 mg/ml) or 50 nl of GluClα (0.1-100 ng) and/or GluClβ (0.1-100 ng). Control oocytes were injected with 50 nl of water. Oocytes were incubated for 2-10 days in ND-96 before recording. Incubations and collagenase digestion were carried out at 18° C.
(§2) Recordings were made at room temperature 2-10 days after injection. Unless otherwise indicated recordings were made in standard frog saline consisting of (mM): NaCl 115, KCl 2, MgCl2 1, CaCl2 1.8, HEPES 10 adjusted to pH 7.5 with NaOH. Oocytes were voltage-clamped using a standard two microelectrode amplifier (Dagan 8500 or TEV-200, Minneapolis,Minn.). Pipettes were filled with 3M KCl and had resistances between 0.5-3.0 M.OMEGA.. A plexiglass recording chamber (volume 200 μl) was constantly perfused at a rate of 10 ml/min. The recording chamber was connected to ground with a Ag/AgCl electrode directly, or through a 3M KCl agar bridge when extracellular chloride was varied. For low chloride solutions NaCl was replaced with equimolar concentrations of sodium isethionic acid. For low sodium solutions NaCl was replaced with equimolar KCl or choline Cl. Data were acquired and analyzed using PCLAMP with a TL-1 interface (Axon Instruments, Foster City, Calif.). Membrane current at a holding potential of -80 mV was recorded. The amplitude of drug-sensitive current was determined by subtracting the holding current at -80 mV from the peak current obtained in the presence of drug. Data were filtered at 30 Hz and sampled at 16.6 Hz. Current/voltage relationships (I/V) and reversal potentials (Erev) were determined using a 1-3 sec voltage ramp over the voltage range of -110 to +80 mV. For the ramps, data were filtered at 0.3-3 kHz and sampled at 160 Hz. Current in drug free solution was subtracted from current in the presence of drug to obtain drug-sensitive current/voltage relationships.
(§3) Electrophysiological properties were examined in oocytes injected with in vitro RNA from pGluClα and pGluClβ (FIG. 5).

[1] = test system: glutamate- and avermectin-sensitive chloride channel (C. elegans poly(A)+ RNA); assay: Current in Xenopus oocytes injected with C. elegans poly(A)+ RNA; format: cell-based; conditions: for type of drug-sensitive current: poly(A)+ RNA injected oocytes
Experimental: as §1
(§4) Recordings were made at room temperature 2-10 days after injection. Unless otherwise indicated recordings were made in standard frog saline consisting of (mM): NaCl 115, KCl 2, MgCl2 1, CaCl2 1.8, HEPES 10 adjusted to pH 7.5 with NaOH. […] Data were acquired and analyzed using PCLAMP with a TL-1 interface (Axon Instruments, Foster City, Calif.). Membrane current at a holding potential of -80 mV was recorded. The amplitude of drug-sensitive current was determined by subtracting the holding current at -80 mV from the peak current obtained in the presence of drug. […] Current/voltage relationships (I/V) and reversal potentials (Erev) were determined using a 1-3 sec voltage ramp over the voltage range of -110 to +80 mV. […]

GluCl α&β = molecular target: T2, GluCl α&β (Caenorhabditis elegans, UniProt G5EBR3+Q17328); assay: Modulation of glutamate-sensitive current by IVMPO4, GluCl α&β injected oocytes; format: cell-based, C. elegans
T2 construct: the full-length open reading frame of the GluCl cDNA encoding the GluClα (52,550 kDa) and GluClβ (49,900kDa) subunits; expressed in transfected cells; host or cells: Xenopus laevis oocytes injected with in vitro RNA
T2 sequence (G5EBR3 21-461): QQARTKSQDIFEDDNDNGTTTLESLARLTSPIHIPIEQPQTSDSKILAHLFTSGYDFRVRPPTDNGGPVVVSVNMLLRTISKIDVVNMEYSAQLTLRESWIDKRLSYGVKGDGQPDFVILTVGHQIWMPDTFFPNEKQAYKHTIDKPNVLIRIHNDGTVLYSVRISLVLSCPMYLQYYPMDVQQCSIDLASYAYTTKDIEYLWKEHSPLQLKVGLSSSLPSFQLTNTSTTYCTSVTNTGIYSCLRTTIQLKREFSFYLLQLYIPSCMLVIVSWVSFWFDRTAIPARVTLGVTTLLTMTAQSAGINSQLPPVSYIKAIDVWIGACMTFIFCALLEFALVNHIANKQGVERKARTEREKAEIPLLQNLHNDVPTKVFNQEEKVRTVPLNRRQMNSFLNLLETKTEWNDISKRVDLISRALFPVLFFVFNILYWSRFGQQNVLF
T2 sequence (Q17328 23-434): T1 sequence (Q17328 23-434)
Experimental: Xenopus laevis oocytes were prepared and injected using standard methods previously described and known in the art [Arena, J. P., Liu. K. K., Paress, P. S. & Cully. D. F. Mol. Pharmacol. 40, 368-374 (1991 ); Arena, J. P., Liu, K. K., Paress, P. S., Schaeffer, J. M. & Cully, D. F. Mol. Brain Res. 15, 339-348 (1992)]. Adult female Xenopus laevis were anesthetized with 0.17% tricaine methanesulfonate and the ovaries were surgically removed and placed in a dish consisting of (mM): NaCl 1 82.5, KCl 2. MgCl2 1, CaCl2 1.8, HEPES 5 adjusted to pH 7.5 with NaOH (OR-2). Ovarian lobes were broken open, rinsed several times, and gently shaken in OR-2 containing 0.2% collagenase (Sigma, Type 1A) for 2-5 hours. […]
as §4, with “injection.” for “injection. Unless otherwise indicated recordings were made in standard frog saline consisting of (mM): NaCl 115, KCl 2, MgCl2 1, CaCl2 1.8, HEPES 10 adjusted to pH 7.5 with NaOH.”

GluClα = molecular target: T3, GluClα (Caenorhabditis elegans, UniProt G5EBR3); assay: Activation of current in Xenopus oocytes expressing homomeric GluClα (voltage clamp); format: cell-based, C. elegans; parameters: the full-length open reading frame of the GluCl cDNA encoding the GluClα (52,550 kDa) and GluClβ (49,900kDa) subunits; expressed in transfected cells; host or cells: Xenopus laevis oocytes injected with in vitro RNA
T3 sequence (G5EBR3 21-461): T2 sequence (G5EBR3 21-461)
Experimental: as §1, §2, §3

Molecule | response of homomeric GluClβ channels (GluClβ) | time for maximal activation of IVMPO4-sensitive current ([1]; poly(A)+ RNA) [s] | type of drug-sensitive current [1] | potentiation of glutamate-sensitive current (GluCl α&β; IVMPO4 5 nM) [%] | response of homomeric GluClα channels (GluClα) | Hill coefficient (IVMPO4) (GluClα; GluClα) | EC50 (GluClα; GluClα, read-out: EC50 for IVMPO4 activation of current) [µM] | voltage dependence of current (GluClα; I/V, GluClα) | time course for IVMPO4 activation (GluClα; homomeric GluClα) [s] | threshold for activation of homomeric GluClβ channels (GluClβ) [µM] | Hill coefficient (glutamate) (GluClβ; GluClβ) | voltage dependence of current (GluClβ; I/V, GluClβ) | EC50 (GluClβ; read-out: EC50 for glutamate, GluClβ alone) [µM] | Hill coefficient (glutamate) with coapplied IVMPO4 (GluCl α&β; coapplication of IVMPO4 and glutamate) | sensitivity of GluClα channels to glutamate (GluClα; glutamate concentrations as high as 10 mM)
ivermectin-4-O-phosphate [IVMPO4] | do not respond | 36 ± 3 | irreversible | 490±45 | selectively responsive | 1.5 | 0.14 | essentially a linear voltage dependence | 18 ± 1 | – | – | – | – | – | –
N[C@@H](CCC(=O)O)C(=O)O [glutamate] | selectively responsive | – | rapidly activating reversible | – | do not respond | – | – | – | – | 50 | 1.9 | steep outwardly rectifying voltage dependence | 380 | 1.3 | insensitive
